{
  "source": "paper PMC9896599",
  "about": "“Biogenesis of flavor-related linalool is diverged and genetically conserved in tree peony (Paeonia × suffruticosa)” (Horticulture Research, 2022)",
  "format_in_all_cases": "biochemical",
  "conditions_in_all_cases": "10 uM GPP, 30 mM KCl, 5 mM MgCl2, 1 mM MnCl2, 50 mM HEPES pH 7.5, 30 °C, 1 h",
  "key": {"PdTPS4": {"target": "T1, PdTPS4 (Paeonia delavayi, UniProt A0A9E8GE34)", "T1 construct": "full-length cDNA, C-terminal His6, E. coli Transetta (DE3), Ni-NTA purified; the five PdTPS are 553-600 residues, about 65 kDa; plastid-localized", "T1 sequence (A0A9E8GE34 entry or part of it)": "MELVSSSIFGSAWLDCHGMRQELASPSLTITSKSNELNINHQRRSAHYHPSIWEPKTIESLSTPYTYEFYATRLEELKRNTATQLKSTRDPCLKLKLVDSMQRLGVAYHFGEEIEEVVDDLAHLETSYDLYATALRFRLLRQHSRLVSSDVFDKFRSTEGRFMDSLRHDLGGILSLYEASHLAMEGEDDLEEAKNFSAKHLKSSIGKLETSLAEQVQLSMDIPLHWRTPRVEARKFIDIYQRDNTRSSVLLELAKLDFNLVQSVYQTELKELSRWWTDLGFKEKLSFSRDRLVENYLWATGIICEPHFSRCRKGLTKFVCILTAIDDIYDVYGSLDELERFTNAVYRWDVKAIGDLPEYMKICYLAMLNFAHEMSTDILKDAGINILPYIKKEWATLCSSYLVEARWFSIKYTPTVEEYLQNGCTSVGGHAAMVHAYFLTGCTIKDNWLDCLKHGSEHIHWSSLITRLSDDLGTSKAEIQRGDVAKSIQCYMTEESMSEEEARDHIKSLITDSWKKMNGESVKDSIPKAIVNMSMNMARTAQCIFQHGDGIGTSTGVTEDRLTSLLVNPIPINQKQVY", "assay": "GC-MS of headspace product (linalool)"}, "PdTPS1": {"target": "T2, PdTPS1 (Paeonia delavayi, UniProt A0A9E8GEC8)", "T2 construct": "full-length cDNA, C-terminal His6, E. coli Transetta (DE3), Ni-NTA purified; the five PdTPS are 553-600 residues, about 65 kDa; plastid-localized", "T2 sequence (A0A9E8GEC8 entry or part of it)": "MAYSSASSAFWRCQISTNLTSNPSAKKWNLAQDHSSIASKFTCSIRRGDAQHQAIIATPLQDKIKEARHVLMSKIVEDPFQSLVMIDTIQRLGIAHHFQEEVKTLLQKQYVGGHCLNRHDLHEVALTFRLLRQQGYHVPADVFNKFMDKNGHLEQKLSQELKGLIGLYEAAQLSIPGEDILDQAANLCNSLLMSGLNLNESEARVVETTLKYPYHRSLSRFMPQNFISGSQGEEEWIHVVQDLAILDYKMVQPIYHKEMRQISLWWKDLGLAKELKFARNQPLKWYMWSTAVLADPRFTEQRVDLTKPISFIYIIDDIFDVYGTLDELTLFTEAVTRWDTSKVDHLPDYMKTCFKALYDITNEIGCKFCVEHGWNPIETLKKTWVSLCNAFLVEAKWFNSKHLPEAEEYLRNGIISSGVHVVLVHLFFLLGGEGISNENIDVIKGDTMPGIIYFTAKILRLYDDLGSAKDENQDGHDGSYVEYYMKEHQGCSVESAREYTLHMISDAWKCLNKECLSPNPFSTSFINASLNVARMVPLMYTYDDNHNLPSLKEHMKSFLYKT", "assay": "GC-MS of headspace product (linalool)"}, "PdTPS3": {"target": "T3, PdTPS3 (Paeonia delavayi, UniProt A0A9E8G7R5)", "T3 construct": "full-length cDNA, C-terminal His6, E. coli Transetta (DE3), Ni-NTA purified; the five PdTPS are 553-600 residues, about 65 kDa; plastid-localized", "T3 sequence (A0A9E8G7R5 entry or part of it)": "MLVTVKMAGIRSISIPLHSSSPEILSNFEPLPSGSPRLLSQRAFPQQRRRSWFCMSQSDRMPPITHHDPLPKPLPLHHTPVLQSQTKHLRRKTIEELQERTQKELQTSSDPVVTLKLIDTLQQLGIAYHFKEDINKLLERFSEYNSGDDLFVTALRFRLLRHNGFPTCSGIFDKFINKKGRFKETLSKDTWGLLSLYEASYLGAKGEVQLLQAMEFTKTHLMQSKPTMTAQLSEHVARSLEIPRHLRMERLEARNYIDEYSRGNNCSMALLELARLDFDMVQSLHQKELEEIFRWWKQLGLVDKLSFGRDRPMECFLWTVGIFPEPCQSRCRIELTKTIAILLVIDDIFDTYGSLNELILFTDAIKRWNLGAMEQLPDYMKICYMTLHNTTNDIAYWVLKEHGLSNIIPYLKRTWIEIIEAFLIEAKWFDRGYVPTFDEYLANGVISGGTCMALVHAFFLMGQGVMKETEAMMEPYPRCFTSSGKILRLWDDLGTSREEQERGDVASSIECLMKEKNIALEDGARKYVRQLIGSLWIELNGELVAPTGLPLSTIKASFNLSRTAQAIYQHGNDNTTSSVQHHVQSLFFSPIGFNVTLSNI", "assay": "GC-MS of headspace product (geraniol)"}},
  "data": [
    {"smiles": "CC(C)=CCC/C(C)=C/COP(=O)(O)OP(=O)(O)O", "note": "[GPP]", "values": [
      {"measurement": "GC-MS of headspace product (linalool)", "setting": "PdTPS4", "result": "both PdTPS1 and PdTPS4 catalyzed the formation of acyclic terpene alcohols with linalool"},
      {"measurement": "GC-MS of headspace product (linalool)", "setting": "PdTPS1", "result": "both PdTPS1 and PdTPS4 catalyzed the formation of acyclic terpene alcohols with linalool"},
      {"measurement": "GC-MS of headspace product (geraniol)", "setting": "PdTPS3", "result": "The reaction products catalyzed by PdTPS3 with GPP formed geraniol rather than linalool"}
    ]}
  ]
}
